Source: ChEMBL document CHEMBL1144166 (Bioorg Med Chem, 2008)
Several values for one entry are separate records, joined by “and”; a condition that tells them apart may be missing. Equal entries are not always repeated.

Columns and labels:
[1] = Inhibition of baboon liver mitochondrial monoamine oxidase B using 50 uM of MMTP by spectrophotometry; design: species or system Papio
[2] = Inhibition of baboon liver mitochondrial monoamine oxidase B using 30 to 120 uM of MMTP by spectrophotometry; design: species or system Papio
Adenosine receptor A2a = Adenosine receptor A2a (Rattus norvegicus, UniProt P30543)
Sequence of Adenosine receptor A2a (P30543 whole entry): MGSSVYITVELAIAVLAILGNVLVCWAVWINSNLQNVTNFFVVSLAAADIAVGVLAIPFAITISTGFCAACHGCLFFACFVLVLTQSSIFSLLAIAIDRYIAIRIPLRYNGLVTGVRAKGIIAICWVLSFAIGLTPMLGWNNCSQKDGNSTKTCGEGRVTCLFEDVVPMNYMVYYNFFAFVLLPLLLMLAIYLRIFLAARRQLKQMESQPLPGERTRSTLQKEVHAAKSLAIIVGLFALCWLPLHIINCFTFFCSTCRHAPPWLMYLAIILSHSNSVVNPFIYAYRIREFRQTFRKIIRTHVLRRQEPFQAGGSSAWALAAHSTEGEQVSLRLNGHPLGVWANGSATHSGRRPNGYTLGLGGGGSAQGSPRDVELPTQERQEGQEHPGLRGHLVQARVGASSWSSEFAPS
Description: Displacement of [3H]NECA from Sprague-Dawley rat adenosine A2A receptor by scintillation counting

Papio [3] = experiment: Inhibition of baboon liver mitochondrial monoamine oxidase B at 30 uM by spectrophotometry
Papio [4] = experiment: Inhibition of baboon liver mitochondrial monoamine oxidase B at 1000 uM by spectrophotometry

IC50 [1] | Ki [1] | Ki [2] | Ki (Adenosine receptor A2a) | inhibition (Papio [4]) | SMILES | inhibition (Papio [3])
37.9 nM | 21.9 nM | 17.2 nM | 59.1 nM |  | Cn1c(=O)c2c(nc(/C=C/C=C/c3cccc(Br)c3)n2C)n(C)c1=O | 
 |  | 36000 nM |  |  | Cn1c(=O)c2c(nc(-c3cccc(Cl)c3)n2C)n(C)c1=O | 
 |  |  | 7.73 nM |  | CCn1c(=O)c2c(nc(/C=C/C=C/c3ccccc3)n2CC)n(CC)c1=O | 14.6%
 |  | 86200 nM |  |  | Cn1c(=O)c2c(nc(-c3ccccc3)n2C)n(C)c1=O | 
 |  |  |  | 18% | Cn1c(=O)c2c(nc(Cc3ccccc3)n2C)n(C)c1=O | 
96.3 nM | 55.6 nM | 42.1 nM | 104 nM |  | Cn1c(=O)c2c(nc(/C=C/C=C/c3cccc(Cl)c3)n2C)n(C)c1=O | 
 |  | 97600 nM |  |  | Cn1c(=O)c2c(nc(Cc3cccc(C(F)(F)F)c3)n2C)n(C)c1=O | 
107 nM | 61.8 nM | 62.7 nM |  |  | Cn1c(=O)c2c(nc(/C=C/c3cccc(Br)c3)n2C)n(C)c1=O | 
383 nM | 221 nM | 149 nM | 153 nM |  | Cn1c(=O)c2c(nc(/C=C/C=C/c3ccccc3)n2C)n(C)c1=O | 
28.4 nM and 16.4 nM |  | 18.9 nM |  |  | Cn1c(=O)c2c(nc(/C=C/c3ccc(Cl)c(Cl)c3)n2C)n(C)c1=O | 
2370 nM | 1370 nM | 1710 nM | 13.5 nM |  | CCn1c(/C=C/C=C/c2ccccc2)nc2c1c(=O)n(C)c(=O)n2C | 
 |  | 54600 nM |  |  | Cn1c(=O)c2c(nc(Cc3cccc(Cl)c3)n2C)n(C)c1=O | 
 |  |  |  | 24% | Cn1c(=O)c2c(nc(-c3cccc(C(F)(F)F)c3)n2C)n(C)c1=O | 
89 nM | 51.4 nM | 46.4 nM | 114 nM |  | Cn1c(=O)c2c(nc(/C=C/C=C/c3cccc(F)c3)n2C)n(C)c1=O | 

SMILES | IC50 [1] | Ki [1] | Ki [2] | Ki (Adenosine receptor A2a) | inhibition (Papio [4]) | inhibition (Papio [3])
CCn1c(=O)c2c(nc(/C=C/C=C/c3ccccc3)n2C)n(CC)c1=O |  |  |  | 2.74 nM |  | 32.7%
